Laboratory results as given in patent US8673951B2, “Isoxazoline-substituted benzamide compound and pesticide” (priority 2005, dated 2014).

Legend:
Format in all cases: in vivo
[1] = tested on: cabbage moth (Plutella xylostella); experiment: Insecticidal test against cabbage moth (Test Example 1); settings: foliar, 144 h, read-out: insecticidal rate (rate of dead insects)
[2] = tested on: common cutworm (Spodoptera litura); experiment: Insecticidal test against common cutworm (Test Example 2); settings: in Brassica oleracea, foliar, 144 h, read-out: insecticidal rate (rate of dead insects)
Description: A 10% emulsifiable concentrate (depending on the compounds, 10% wettable powder was applied for the test) of the compound of the present invention was diluted with water […] To the chemical solution was dipped leaves of cabbage for about 10 seconds, and after air-drying, they were placed in a laboratory dish, then 5-common cutworm (Spodoptera litura) in the stage of second instar larva per the dish were released therein, and the dish was covered with a lid and contained at a thermostat chamber at 25° C. […] Incidentally, the test was carried out with two districts.

[3] = tested on: American dog tick (Dermacentor variabilis); experiment: Insecticidal test against American dog tick (Test Example 20); settings: 96 h, thin film in laboratory dish, 0.1 μg/cm^2 (*), protonymph, after 4 days, read-out: insecticidal rate (rate of dead insects)
Description: After 400 μl of acetone solution in which 4 mg of the compound of the present invention was dissolved in 40 ml of acetone (concentration 100 ppm) was coated on the bottom face and side face of two laboratory dishes having an inner diameter of 5.3 cm, acetone was vaporized to prepare a thin film of the compound of the present invention on the inner wall of the laboratory dish. As the surface area of the inner wall is 40 cm^2, the treated dosage is […]. […] A number of dead insect(s) after 4 days was counted and a rate of dead insects was calculated by the calculation equation similar to that in Test Example 1. Incidentally, the test was carried out with one district.

[4] = tested on: corn earworm (Helicoverpa armigera); experiment: Insecticidal test against corn earworm, Comparative Example 1 (Test Example 23, Table 17); settings: cabbage leaf dip, third instar larva, after 6 days
Description: (§1) A 10% emulsifiable concentrate of the compound of the present invention or comparative compound was diluted with water containing a spreading agent to prepare a chemical solution with a prescribed concentration. To the chemical solution was dipped leaves of cabbage for about 10 seconds, and after air-drying, they were placed in a laboratory dish, then 7-corn earworm (Helicoverpa armigera) in the stage of third instar larva per the dish were released therein, and the dish was covered with a perforated lid and contained at a thermostat chamber at 25° C. Artificial feed (1 cm^3) was added after 2 days of treatment, and a number of dead insect(s) after 6 days was counted and a rate of dead insects was calculated by the following calculation equation. In the meantime, the test was carried out with two areas. Rate of dead insects (%)=(Number of dead insects/Number of released insects)×100 The rate of dead insects in each prescribed concentration of the compounds tested is shown in Table 17.

[5] = tested on: oriental tea tortix (Homona magnanima); experiment: Insecticidal test against oriental tea tortix, Comparative Example 2 (Test Example 24, Table 18); settings: cabbage leaf dip, third instar larva, after 6 days
Description: as §1, with “7-oriental tea tortix (Homona magnanima)” for “7-corn earworm (Helicoverpa armigera)”, “A” for “Artificial feed (1 cm^3) was added after 2 days of treatment, and a”, “18.” for “17.”

With `COC(=O)NC(=O)c1ccc(C2=NOC(c3cc(Cl)cc(Cl)c3)(C(F)(F)F)C2)cc1C` (stereo not shown) [2-003, Methyl N-[4-[5-(3,5-dichlorophenyl)-5-trifluoromethyl-4,5-dihydroisoxazole-3-yl]-2-methylbenzoyl]carbamate] the pest or weed control at 100 ppm [1] was no less than 80%, the pest or weed control at 100 ppm [2] was no less than 80% and the pest or weed control at 0.1 µg/cm2 [3] was no less than 80%.

`COC(=O)N(COC(C)=O)C(=O)c1ccc(C2=NOC(c3cc(Cl)cc(Cl)c3)(C(F)(F)F)C2)cc1C` (stereo not shown) [3-033] was tested, and the “Rate of dead insects” value ([4]; 1 ppm) was 7.1%, the “Rate of dead insects” value ([4]; 3 ppm) was 50.0% and the “Rate of dead insects” value ([4]; 10 ppm) was 100%. For the same compound, the “Rate of dead insects” value ([4]; 33 ppm) was 100%.

`CCN(C(=O)c1ccc(C2=NOC(c3cc(Cl)cc(Cl)c3)(C(F)(F)F)C2)cc1C)c1ccccc1` (stereo not shown) [5-002, 4-[5-(3,5-Dichlorophenyl)-5-trifluoromethyl-4,5-dihydroisoxazole-3-yl]-N-ethyl-2-methyl benzoic acid anilide] was tested, and the pest or weed control at 100 ppm [1] was no less than 80%, the pest or weed control at 100 ppm [2] was no less than 80% and the pest or weed control at 0.1 µg/cm2 [3] was no less than 80%.

In the case of `CC(=O)N(C(=O)c1ccc(C2=NOC(c3cc(Cl)cc(Cl)c3)(C(F)(F)F)C2)cc1C)c1ncc(Cl)cn1` (stereo not shown) [5-100, N-Acetyl-N-(5-chloro-2-pyrimidinyl)-4-[5-(3,5-dichlorophenyl)-5-trifluoromethyl-4,5-dihydroisoxazole-3-yl]-2-methyl benzoic acid amide], the pest or weed control at 100 ppm [1] is reported as no less than 80%, the pest or weed control at 100 ppm [2] is reported as no less than 80% and the pest or weed control at 0.1 µg/cm2 [3] is reported as no less than 80%.

`COCC(=O)N(C(=O)c1ccc(C2=NOC(c3cc(Cl)cc(Cl)c3)(C(F)(F)F)C2)cc1C)c1ncc(Cl)cn1` (stereo not shown) [5-106, N-(5-Chloro-2-pyrimidinyl)-4-[5-(3,5-dichlorophenyl)-5-trifluoromethyl-4,5-dihydro-isoxazole-3-yl]-N-methoxyacetyl-2-methyl benzoic acid amide] showed a pest or weed control at 10 ppm [1] of no less than 80%, a pest or weed control at 10 ppm [2] of no less than 80% and a pest or weed control at 0.1 µg/cm2 [3] of no less than 80%.

With `Cc1cc(C2=NOC(c3cc(Cl)cc(Cl)c3)(C(F)(F)F)C2)ccc1C(=O)N(C(=O)C(C)C)c1ncc(Br)cn1` (stereo not shown) [5-122, N-(5-Bromo-2-pyrimidinyl)-4-[5-(3,5-dichlorophenyl)-5-trifluoromethyl-4,5-dihydroisoxazole-3-yl]-N-isobutyryl-2-methyl benzoic acid amide] the pest or weed control at 10 ppm [1] was no less than 80%, the pest or weed control at 10 ppm [2] was no less than 80% and the pest or weed control at 0.1 µg/cm2 [3] was no less than 80%.

For `CC(=O)N(C(=O)c1ccc(C2=NOC(c3cc(Cl)cc(Cl)c3)(C(F)(F)F)C2)cc1C)c1cncnc1` (stereo not shown) [5-165], the “Rate of dead insects” value ([5]; 0.1 ppm) was 14.3%, the “Rate of dead insects” value ([5]; 0.3 ppm) was 57.1% and the “Rate of dead insects” value ([5]; 1 ppm) was 92.9%. For the same compound, the “Rate of dead insects” value ([5]; 3 ppm) was 100% and the “Rate of dead insects” value ([5]; 10 ppm) was 100%.

`CO/N=C\NC(=O)c1ccc(C2=NOC(c3cc(Cl)cc(Cl)c3)(C(F)(F)F)C2)cc1C` (stereo not shown) [6-004, (Z)-4-[5-(3,5-Dichlorophenyl)-5-trifluoromethyl-4,5-dihydro-isoxazole-3-yl]-N-(methoxyiminomethyl)-2-methylbenzoic acid amide] was tested, and the pest or weed control at 10 ppm [1] was no less than 80%, the pest or weed control at 10 ppm [2] was no less than 80% and the pest or weed control at 0.1 µg/cm2 [3] was no less than 80%.

Work on `CCON=CNC(=O)c1ccc(C2=NOC(c3cc(Cl)cc(Cl)c3)(C(F)(F)F)C2)cc1C` (stereo not shown) [6-005, 4-[5-(3,5-Dichlorophenyl)-5-trifluoromethyl-4,5-dihydroisoxazole-3-yl]-N-(ethoxyimino-methyl)-2-methyl benzoic acid amide] yielded a pest or weed control at 10 ppm [1] of no less than 80%, a pest or weed control at 10 ppm [2] of no less than 80% and a pest or weed control at 0.1 µg/cm2 [3] of no less than 80%.

Compound `CON=CN(C)C(=O)c1ccc(C2=NOC(c3cc(Cl)cc(Cl)c3)(C(F)(F)F)C2)cc1C` (stereo not shown) [7-003, 4-[5-(3,5-Dichlorophenyl)-5-trifluoromethyl-4,5-dihydroisoxazole-3-yl]-N-(methoxyiminomethyl)-N-methyl-2-methylbenzoic acid amide] has a pest or weed control at 0.1 µg/cm2 [3] of no less than 80%.

`COC(=O)N(CC(F)(F)F)C(=O)c1ccc(C2=NOC(C(F)(F)F)C2c2cc(Cl)cc(Cl)c2)cc1C` (stereo not shown) [Comparative Compound A, reference compound] was tested, and the “Rate of dead insects” value ([4]; 1 ppm) was 0%, the “Rate of dead insects” value ([4]; 3 ppm) was 0% and the “Rate of dead insects” value ([4]; 10 ppm) was 28.6%. The “Rate of dead insects” value ([4]; 33 ppm) was 92.9%.

`Cc1cc(C2=NOC(C(F)(F)F)C2c2cc(Cl)cc(Cl)c2)ccc1C(=O)Nc1ncccn1` (stereo not shown) [Comparative Compound B, reference compound] was tested, and the “Rate of dead insects” value ([5]; 0.1 ppm) was 0%, the “Rate of dead insects” value ([5]; 0.3 ppm) was 0% and the “Rate of dead insects” value ([5]; 1 ppm) was 7.1%. The “Rate of dead insects” value ([5]; 3 ppm) was 64.3% and the “Rate of dead insects” value ([5]; 10 ppm) was 100%.
